Data from patent US20260124222A1, “ISOTHIAZOLYLCARBOXAMIDE COMPOUNDS AND THEIR USE IN THERAPY” (HOTSPOT THERAPEUTICS, INC., priority 2022, published 2026).

Target: T1, Avi-tagged FL MALT-1 (Homo sapiens, UniProt Q9UDY8)
T1 construct: Avi-tagged FL MALT-1 (Pharmaron, stored at −70° C.); Avi-tag; purchased Pharmaron
T1 sequence (Q9UDY8 1-824): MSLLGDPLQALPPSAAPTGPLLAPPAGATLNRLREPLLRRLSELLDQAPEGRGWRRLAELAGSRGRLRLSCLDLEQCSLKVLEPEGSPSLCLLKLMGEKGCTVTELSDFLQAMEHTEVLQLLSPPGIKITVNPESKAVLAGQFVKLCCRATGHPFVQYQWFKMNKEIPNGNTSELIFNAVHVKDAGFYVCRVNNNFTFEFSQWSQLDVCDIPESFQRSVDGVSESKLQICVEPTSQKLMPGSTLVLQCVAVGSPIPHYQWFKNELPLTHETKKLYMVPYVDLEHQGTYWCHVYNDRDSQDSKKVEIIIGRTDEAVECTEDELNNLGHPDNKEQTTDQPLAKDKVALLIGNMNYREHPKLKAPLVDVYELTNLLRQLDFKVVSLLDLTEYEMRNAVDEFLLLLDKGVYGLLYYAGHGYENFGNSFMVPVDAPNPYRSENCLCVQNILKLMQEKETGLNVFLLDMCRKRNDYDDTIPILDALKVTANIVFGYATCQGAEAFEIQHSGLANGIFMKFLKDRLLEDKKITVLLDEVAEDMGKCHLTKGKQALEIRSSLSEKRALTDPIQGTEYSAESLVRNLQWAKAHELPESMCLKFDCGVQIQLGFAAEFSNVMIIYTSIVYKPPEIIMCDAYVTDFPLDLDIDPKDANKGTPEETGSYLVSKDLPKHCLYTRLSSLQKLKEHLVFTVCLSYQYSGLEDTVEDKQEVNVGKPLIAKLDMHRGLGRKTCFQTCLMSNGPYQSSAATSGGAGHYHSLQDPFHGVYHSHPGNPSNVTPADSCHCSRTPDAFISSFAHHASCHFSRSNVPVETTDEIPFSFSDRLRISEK
Test: MALT-1 Fluorogenic Peptide Cleavage Assay (MALT1 inhibition assay)
Type: biochemical
Settings: Ac-LRSR-AMC peptide substrate; 30 min pre-incubation, 90 min reaction at room temperature; fluorescence
Procedure, shortened: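 Full-length Avi-tagged enzyme preincubated 30 min at room temperature with compound (2% DMSO final) in HEPES pH 6.89 buffer with sodium citrate, TCEP, EDTA and CHAPS. Ac-LRSR-AMC substrate added at Km or 10×Km (working stocks 50 or […] μM); fluorescence (ex 342/em 441 nm) after 90 min; IC50 from sigmoidal fit.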

| Compound | IC50 |
| --- | --- |
| CN(C)c1nsc(C(=O)Nc2ccnc(C(F)(F)F)c2)c1C1CC1 [I-125] | > 2500 nM |
| Cn1nc2cccc(-c3nsc(C(=O)Nc4cnc(-n5nccn5)c(C#N)c4)c3C3CC3)c2n1 [I-126] | ≤ 400 nM |
| Cn1ccc(-c2nsc(C(=O)Nc3cnc(-n4nccn4)c(C#N)c3)c2C(F)(F)F)cc1=O [I-128, N-(5-cyano-6-(2H-1,2,3-triazol-2-yl)pyridin-3-yl)-3-(1-methyl-2-oxo-1,2-dihydropyridin-4-yl)-4-(trifluoromethyl)isothiazole-5-carboxamide] | > 2500 nM |
| CC(=O)N1CC(c2nsc(C(=O)Nc3cnc(-n4nccn4)c(C#N)c3)c2C(F)(F)F)C1 [I-129, 3-(1-acetylazetidin-3-yl)-N-[5-cyano-6-(1,2,3-triazol-2-yl)pyridin-3-yl]-4-(trifluoromethyl)-1,2-thiazole-5-carboxamide] | > 2500 nM |
| N#Cc1cc(NC(=O)c2snc(-c3cccc4nccn34)c2C2CC2)cnc1-n1nccn1 [I-131, N-(5-cyano-6-(2H-1,2,3-triazol-2-yl)pyridin-3-yl)-4-cyclopropyl-3-(imidazo[1,2-a]pyridin-5-yl)isothiazole-5-carboxamide] | ≤ 400 nM |
| O=C(Nc1ccnc(C(F)(F)F)c1)c1snc(-c2cccc3nccn23)c1C1CC1 [I-132, 4-cyclopropyl-3-(imidazo[1,2-a]pyridin-5-yl)-N-(2-(trifluoromethyl)pyridin-4-yl)isothiazole-5-carboxamide] | ≤ 400 nM |
| O=C(Nc1ccc(C(=O)N2CC(O)C2)c(Cl)c1)c1snc(-c2cccc3ncccc23)c1C1CC1 [I-133, N-(3-chloro-4-(3-hydroxyazetidine-1-carbonyl)phenyl)-4-cyclopropyl-3-(quinolin-5-yl)isothiazole-5-carboxamide] | ≤ 400 nM |
| O=C(Nc1ccnc(C(F)(F)F)c1)c1snc(-c2ccccc2Cl)c1C1CC1 [I-135, 3-(2-chlorophenyl)-4-cyclopropyl-N-[2-(trifluoromethyl)pyridin-4-yl]-1,2-thiazole-5-carboxamide] | ≤ 400 nM |
| O=C(Nc1ccnc(C(F)(F)F)c1)c1snc(-c2ccc(Cl)cc2)c1C1CC1 [I-136, 3-(4-chlorophenyl)-4-cyclopropyl-N-[2-(trifluoromethyl)pyridin-4-yl]-1,2-thiazole-5-carboxamide] | ≤ 400 nM |
| O=C(Nc1ccnc(C(F)(F)F)c1)c1snc(-c2ccc(C(F)(F)F)cc2)c1C1CC1 [I-137, 4-cyclopropyl-3-[4-(trifluoromethyl)phenyl]-N-[2-(trifluoromethyl)pyridin-4-yl]-1,2-thiazole-5-carboxamide] | 400 to 1000 nM |
| CC(=O)Nc1cccc(-c2nsc(C(=O)Nc3ccnc(C(F)(F)F)c3)c2C2CC2)c1 [I-141, 4-cyclopropyl-3-(3-acetamidophenyl)-N-[2-(trifluoromethyl)pyridin-4-yl]-1,2-thiazole-5-carboxamide] | 400 to 1000 nM |
| O=C(Nc1ccnc(C(F)(F)F)c1)c1snc(-c2ccc3scnc3c2)c1C1CC1 [I-142, 3-(1,3-benzothiazol-5-yl)-4-cyclopropyl-N-[2-(trifluoromethyl)pyridin-4-yl]-1,2-thiazole-5-carboxamide] | ≤ 400 nM |
| O=C(Nc1ccnc(C(F)(F)F)c1)c1snc(-c2cncnc2)c1C1CC1 [I-144, 4-cyclopropyl-3-(pyrimidin-5-yl)-N-[2-(trifluoromethyl)pyridin-4-yl]-1,2-thiazole-5-carboxamide] | ≤ 400 nM |
| O=C(Nc1ccnc(C(F)(F)F)c1)c1snc(-c2cncc(F)c2)c1C1CC1 [I-146, 4-cyclopropyl-3-(5-fluoropyridin-3-yl)-N-[2-(trifluoromethyl)pyridine-4-yl]-1,2-thiazole-5-carboxamide] | ≤ 400 nM |
| CC(=O)Nc1ccc(-c2nsc(C(=O)Nc3ccnc(C(F)(F)F)c3)c2C2CC2)cc1 [I-148, 3-(4-acetamidophenyl)-4-cyclopropyl-N-(2-(trifluoromethyl)pyridin-4-yl)isothiazole-5-carboxamide] | 400 to 1000 nM |
| O=C(Nc1ccnc(C(F)(F)F)c1)c1snc(-c2ccn3ncnc3c2)c1C1CC1 [I-151, 3-([1,2,4]triazolo[1,5-a]pyridin-7-yl)-4-cyclopropyl-N-(2-(trifluoromethyl)pyridin-4-yl)isothiazole-5-carboxamide] | 400 to 1000 nM |
| COc1cccc(-c2nsc(C(=O)Nc3ccnc(C(F)(F)F)c3)c2C2CC2)c1 [I-156, 4-cyclopropyl-3-(3-methoxyphenyl)-N-(2-(trifluoromethyl)pyridin-4-yl)isothiazole-5-carboxamide] | ≤ 400 nM |

The next lines start with the values.

| IC50 | Compound |
| --- | --- |
| ≤ 400 nM | Cn1nnc2c(-c3nsc(C(=O)Nc4cnc(-n5nccn5)c(C#N)c4)c3C3CC3)cccc21 [I-127] |
| > 2500 nM | CN1CC(c2nsc(C(=O)Nc3cnc(-n4nccn4)c(C#N)c3)c2C(F)(F)F)C1 [I-130, N-[5-cyano-6-(1,2,3-triazol-2-yl)pyridin-3-yl]-3-(1-methylazetidin-3-yl)-4-(trifluoromethyl)-1,2-thiazole-5-carboxamide] |
| > 2500 nM | CN1CC=C(c2nsc(C(=O)Nc3cnc(-n4nccn4)c(C#N)c3)c2C2CC2)CC1 [I-134, N-(5-cyano-6-(2H-1,2,3-triazol-2-yl)pyridin-3-yl)-4-cyclopropyl-3-(1-methyl-1,2,3,6-tetrahydropyridin-4-yl)isothiazole-5-carboxamide] |
| ≤ 400 nM | O=C(Nc1ccnc(C(F)(F)F)c1)c1snc(-c2cccc(C(F)(F)F)c2)c1C1CC1 [I-138, 4-cyclopropyl-3-(3-(trifluoromethyl)phenyl)-N-(2-(trifluoromethyl)pyridin-4-yl)isothiazole-5-carboxamide] |
| ≤ 400 nM | O=C(Nc1ccnc(C(F)(F)F)c1)c1snc(-c2cccc(Cl)c2)c1C1CC1 [I-139, 3-(3-chlorophenyl)-4-cyclopropyl-N-(2-(trifluoromethyl)pyridin-4-yl)isothiazole-5-carboxamide] |
| ≤ 400 nM | Cc1ccc(-c2nsc(C(=O)Nc3ccnc(C(F)(F)F)c3)c2C2CC2)c2cccnc12 [I-140, 4-cyclopropyl-3-(8-methylquinolin-5-yl)-N-[2-(trifluoromethyl)pyridin-4-yl]-1,2-thiazole-5-carboxamide] |
| ≤ 400 nM | Cc1nn(C)cc1-c1nsc(C(=O)Nc2ccnc(C(F)(F)F)c2)c1C1CC1 [I-143, 4-cyclopropyl-3-(1,3-dimethyl-1H-pyrazol-4-yl)-N-(2-(trifluoromethyl)pyridin-4-yl)isothiazole-5-carboxamide] |
| > 2500 nM | CN(C)c1ccc(-c2nsc(C(=O)Nc3ccnc(C(F)(F)F)c3)c2C2CC2)cc1 [I-145, 4-cyclopropyl-3-[4-(dimethylamino)phenyl]-N-[2-(trifluoromethyl)pyridine-4-yl]-1,2-thiazole-5-carboxamide] |
| ≤ 400 nM | O=C(Nc1ccnc(C(F)(F)F)c1)c1snc(-c2ccccc2F)c1C1CC1 [I-147, 4-cyclopropyl-3-(2-fluorophenyl)-N-[2-(trifluoromethyl)pyridine-4-yl]-1,2-thiazole-5-carboxamide] |
| 1000 to 2500 nM | Cn1ccc(-c2nsc(C(=O)Nc3ccnc(C(F)(F)F)c3)c2C2CC2)n1 [I-150, 4-cyclopropyl-3-(1-methyl-1H-pyrazol-3-yl)-N-(2-(trifluoromethyl)pyridin-4-yl)isothiazole-5-carboxamide] |
| ≤ 400 nM | Cn1ncc2c(-c3nsc(C(=O)Nc4ccnc(C(F)(F)F)c4)c3C3CC3)cccc21 [I-152, 4-cyclopropyl-3-(1-methyl-1H-indazol-4-yl)-N-(2-(trifluoromethyl)pyridin-4-yl)isothiazole-5-carboxamide] |
| ≤ 400 nM | O=C(Nc1ccnc(C(F)(F)F)c1)c1snc(-c2ccc3ncsc3c2)c1C1CC1 [I-153, 3-(1,3-benzothiazol-6-yl)-4-cyclopropyl-N-[2-(trifluoromethyl)pyridin-4-yl]-1,2-thiazole-5-carboxamide] |
| ≤ 400 nM | O=C(Nc1ccnc(C(F)(F)F)c1)c1snc(-c2ccc(C(F)F)cc2)c1C1CC1 [I-154, 4-cyclopropyl-3-(4-(difluoromethyl)phenyl)-N-(2-(trifluoromethyl)pyridin-4-yl)isothiazole-5-carboxamide] |
| ≤ 400 nM | O=C(Nc1ccnc(C(F)(F)F)c1)c1snc(-c2ccncc2F)c1C1CC1 [I-155, 4-cyclopropyl-3-(3-fluoropyridin-4-yl)-N-[2-(trifluoromethyl)pyridin-4-yl]-1,2-thiazole-5-carboxamide] |
| ≤ 400 nM | Cn1cc2c(-c3nsc(C(=O)Nc4ccnc(C(F)(F)F)c4)c3C3CC3)cccc2n1 [I-157, 4-cyclopropyl-3-(2-methyl-2H-indazol-4-yl)-N-(2-(trifluoromethyl)pyridin-4-yl)isothiazole-5-carboxamide] |
